Common to all, as to format: cell-based
In data set [1] the test system is HIV-1/100-Ile. Kind of data set: Inhibition of HIV-1 induced syncytium formation in CEM cells, RT mutant 100-Ile. Conditions: Human immunodeficiency virus 1, CCRF-CEM, 96 h, Table 2B, day 4, averages of 2 to 3 independent experiments, read-out: Antiviral Activity of Comparative Compounds EC50, 100-Ile. The source says: (§1) CEM cells were obtained from the American Tissue Cell Culture Collection (Rockville, Md.). HIV-1(IIIB) was originally obtained from the culture supernatant of persistently HIV-1-infected H9 cells and was provided by R. C. Gallo and M. Popovic (National Cancer Institute, National Institutes of Health, Bethesda, Md.). […] 67: 5353-5359 (1993); HIV-1/Lys-138 ("Lys-138") was selected for resistance against TSAO-m^3T as described in Balzarini et al, Virology 192: 246-253 (1993) and Balzarini et al, Proc. Nat. Acad. Sci. USA 90: 6952-6956 (1993); HIV-1/181-Cys ("181-Cys") was selected for resistance against pyridinone L-697,661 as described in Balzarini et al, Virology 192: 246-253 (1993); and HIV-1/188-His ("188-His") was selected for resistance against HEPT as described in Balzarini et al, Mol. Pharmocol. 44: 694-701 (1993). 188-His was then further converted to HIV-1/188-Leu "188-Leu") upon further passage in cell culture in the absence of the HEPT.
(§2) CEM cells were suspended at ≈300,000 cells per ml of culture medium and infected with approximately 100 CCID50 (CCID50 being the 50% cell culture infective dose) of HIV-1(IIIB) or one of the HIV-1 RT mutant strains described above. Then 100 μl of the infected cell suspensions was added to 200 μl microtiter plate wells containing 100 μl of appropriate serial (5-fold) dilutions of the test compounds. The inhibitory effect of the test compounds on HIV-1 induced syncytium formation in CEM cells was examined microscopically on day 4 post infection.

For data set [2], the system named is HIV-1(IIIB). The data set can be described thus: Inhibition of HIV-1 induced syncytium formation in CEM cells, wild type. As to conditions: Human immunodeficiency virus 1, IIIB, CCRF-CEM, 96 h, Table 2B, WT = HIV-1(IIIB), day 4, averages of 2 to 3 independent experiments, read-out: Antiviral Activity of Comparative Compounds EC50, WT.
Text: as §1, §2

A short description of data set [3]: in vitro. Conditions: human, cem cells, CC50 (50% cytostatic concentration), Table 2B; CEM cell proliferation; averages of 2 to 3 independent experiments.
Text: as §1
^b 50% cytostatic concentration (i.e., compound concentration require
to inhibit CEM cell proliferation by 50%)

Data set [4] concerns HIV-1/106-Ala. The data set can be described thus: Inhibition of HIV-1 induced syncytium formation in CEM cells, RT mutant 106-Ala. As to conditions: Human immunodeficiency virus 1, CCRF-CEM, 96 h, Table 2B, day 4, averages of 2 to 3 independent experiments, read-out: Antiviral Activity of Comparative Compounds EC50, 106-Ala.
Text: as §1, §2

Data set [5] deals with HIV-1/181-Cys. The data set can be described thus: Inhibition of HIV-1 induced syncytium formation in CEM cells, RT mutant 181-Cys. As to conditions: Human immunodeficiency virus 1, CCRF-CEM, 96 h, Table 2B, day 4, averages of 2 to 3 independent experiments, read-out: Antiviral Activity of Comparative Compounds EC50, 181-Cys.
Text: as §1, §2

Data set [6] deals with HIV-1/Lys-138. Kind of data set: Inhibition of HIV-1 induced syncytium formation in CEM cells, RT mutant 138-Lys. Conditions: Human immunodeficiency virus 1, CCRF-CEM, 96 h, Table 2B, day 4, averages of 2 to 3 independent experiments, read-out: Antiviral Activity of Comparative Compounds EC50, 138-Lys.
Text: as §1, §2

The text below walks through data of patent US5696151A, “Compounds useful for the inhibition of the replication of HIV-1 and HIV-1 mutants” (priority 1995, dated 1997).

What is called EC50 is the concentration giving half of the maximal effect. For orientation: CC50 means the concentration giving 50% cytotoxicity. A high value points to better tolerance by the cells.

≈ marks a conversion by molar mass, not a printed value. Where only a bound is given, the exact number is not on record here.

As for `Cc1occc1C(=O)Nc1ccc(Cl)c(C(=O)OC(C)C)c1` [Compound 48], the EC50 in data set [1] came to 6.5 µg/mL (≈ 20.2 µM); in data set [2] it was 0.45 µg/mL (≈ 1.4 µM); in data set [4], 6.5 µg/mL (≈ 20.2 µM); in data set [5] it was 6 µg/mL (≈ 18.6 µM); in data set [6], 3.5 µg/mL (≈ 10.9 µM). In data set [3], this compound showed a CC50 of 3.8 µg/mL (≈ 11.8 µM).

Turning to `Cc1occc1C(=S)Nc1ccc(Cl)c(C(=O)OC(C)C)c1` [Compound 49], the EC50 stood at 0.6 µg/mL (≈ 1.78 µM) in data set [1]; 0.007 µg/mL (≈ 0.0207 µM) in data set [2]; 0.6 µg/mL (≈ 1.78 µM) in data set [4]; 0.2 µg/mL (≈ 0.592 µM) in data set [5]; 0.6 µg/mL (≈ 1.78 µM) in data set [6]. The same compound yielded a CC50 in data set [3] of 5.2 µg/mL (≈ 15.4 µM).

For `C=C(C)COC(=O)c1cc(NC(=O)c2ccoc2C)ccc1Cl` [Compound 50], the EC50 is 5 µg/mL (≈ 15 µM) in data set [1]; 0.15 µg/mL (≈ 0.449 µM) in data set [2]; 1 µg/mL (≈ 3 µM) in data set [4]; 1.9 µg/mL (≈ 5.69 µM) in data set [5]; 1 µg/mL (≈ 3 µM) in data set [6]. This compound had a CC50 in data set [3] of 3.7 µg/mL (≈ 11.1 µM).

Take `C=C(C)COC(=O)c1cc(NC(=S)c2ccoc2C)ccc1Cl` [Compound 51]: the EC50 in data set [1] was found to be 0.8 µg/mL (≈ 2.29 µM); in data set [2], 0.006 µg/mL (≈ 0.0172 µM); in data set [4] it was 0.03 µg/mL (≈ 0.0858 µM); in data set [5], 0.1 µg/mL (≈ 0.286 µM); in data set [6], 0.03 µg/mL (≈ 0.0858 µM). Besides, the CC50 in data set [3] came out at 6.7 µg/mL (≈ 19.2 µM).

Regarding `Cc1occc1C(=O)Nc1ccc(Cl)c(COC(C)(C)C)c1` [Compound 52], the EC50 in data set [1] is 8.5 µg/mL (≈ 26.4 µM); in data set [2] it was 0.7 µg/mL (≈ 2.18 µM); in data set [4], 5.5 µg/mL (≈ 17.1 µM); in data set [5], at least 10 µg/mL; in data set [6] it was 4 µg/mL (≈ 12.4 µM). Besides, the midpoint of cytotoxicity in data set [3], the CC50, lay at 6.2 µg/mL (≈ 19.3 µM).

For `Cc1occc1C(=S)Nc1ccc(Cl)c(COC(C)(C)C)c1` [Compound 53], the EC50 turned out to be 0.85 µg/mL (≈ 2.52 µM) in data set [1]; 0.03 µg/mL (≈ 0.0888 µM) in data set [2]; 0.29 µg/mL (≈ 0.858 µM) in data set [4]; 0.55 µg/mL (≈ 1.63 µM) in data set [5]; 0.08 µg/mL (≈ 0.237 µM) in data set [6]. In addition, the CC50 in data set [3] came out at 18 µg/mL (≈ 53.3 µM).

For the compound `Cc1occc1C(=O)Nc1ccc(Cl)c(C(=O)OC(C)C2CC2)c1` (stereo not drawn) [Compound 54], the EC50 is over 10 µg/mL in data set [1]; 0.6 µg/mL (≈ 1.73 µM) in data set [2]; 5 µg/mL (≈ 14.4 µM) in data set [4]; 1 µg/mL (≈ 2.88 µM) in data set [5]; over 10 µg/mL in data set [6]. Moreover, the CC50 in data set [3] came to 44 µg/mL (≈ 127 µM).

For the compound `Cc1occc1C(=S)Nc1ccc(Cl)c(C(=O)OC(C)C2CC2)c1` (stereo not drawn) [Compound 55], the EC50 in data set [1] is 0.65 µg/mL (≈ 1.79 µM); in data set [2] it was 0.009 µg/mL (≈ 0.0247 µM); in data set [4], 0.08 µg/mL (≈ 0.22 µM); in data set [5] it was 0.11 µg/mL (≈ 0.302 µM); in data set [6], 0.18 µg/mL (≈ 0.495 µM). Further, the CC50 in data set [3] was found to be 17 µg/mL (≈ 46.7 µM).

Regarding `COc1ccc(NC(=O)c2ccoc2C)cc1CC(=O)OC(C)C` [Compound 56], the EC50 in data set [1] was over 10 µg/mL; in data set [2], 0.7 µg/mL (≈ 2.11 µM); in data set [4] it was 6.5 µg/mL (≈ 19.6 µM); in data set [5], over 10 µg/mL; in data set [6], at least 10 µg/mL. In addition, in data set [3], the CC50 amounted to 52 µg/mL (≈ 157 µM).

With `COc1ccc(NC(=S)c2ccoc2C)cc1CC(=O)OC(C)C` [Compound 57], the EC50 in data set [1] worked out at 1.3 µg/mL (≈ 3.74 µM); in data set [2], 0.009 µg/mL (≈ 0.0259 µM); in data set [4], 0.2 µg/mL (≈ 0.576 µM); in data set [5], 0.5 µg/mL (≈ 1.44 µM); in data set [6], 0.08 µg/mL (≈ 0.23 µM). Further, the CC50 in data set [3] is over 100 µg/mL.

Regarding `Cc1sccc1C(=O)Nc1ccc(Cl)c(C=NOC(C)(C)C)c1` [Compound 60], the EC50 came out at 4.5 µg/mL (≈ 12.8 µM) in data set [1]; 0.23 µg/mL (≈ 0.656 µM) in data set [2]; 1.6 µg/mL (≈ 4.56 µM) in data set [4]; 3 µg/mL (≈ 8.55 µM) in data set [5]; 1.57 µg/mL (≈ 4.47 µM) in data set [6]. The compound further yielded a CC50 in data set [3] of 14 µg/mL (≈ 39.9 µM).

On to `Cc1sccc1C(=S)Nc1ccc(Cl)c(C=NOC(C)(C)C)c1` [Compound 61], for which the EC50 amounted to 0.2 µg/mL (≈ 0.545 µM) in data set [1]; 0.01 µg/mL (≈ 0.0273 µM) in data set [2]; 0.2 µg/mL (≈ 0.545 µM) in data set [4]; 0.2 µg/mL (≈ 0.545 µM) in data set [5]; 0.05 µg/mL (≈ 0.136 µM) in data set [6]. The compound further registered a CC50 in data set [3] of 12 µg/mL (≈ 32.7 µM).
